Assay results from ChEMBL document CHEMBL1159286, “New secosteroids from an undescribed gorgonian of the genus Muricella” (J Nat Prod, 1995).
Values after ≈ are worked out from the molar mass of the structure shown.

Tests used:
Enterovirus C = assay: Antiviral activity against Poliovirus; assay type: functional, organism-based
Human alphaherpesvirus 2 = assay: Antiviral activity against HSV2; assay type: functional, organism-based
Human alphaherpesvirus 1 = assay: Antiviral activity against HSV1; assay type: functional, organism-based
Artemia = assay: Toxicity against brine shrimp larvae; assay type: organism-based; details: in vivo

Cc1ccc(O)cc1CC[C@@H]1C(=O)CC[C@]2(C)[C@@H]([C@H](C)/C=C/C(C)C(C)C)CC[C@@H]12 (some centres undefined) [CALICOFEROL D]
EC50 (Enterovirus C): 0.4 mg/L (≈ 0.974 µM) | EC50 (Human alphaherpesvirus 2): 1.2 mg/L (≈ 2.92 µM) | EC50 (Human alphaherpesvirus 1): 1.2 mg/L (≈ 2.92 µM) | LD50 (Artemia): 37 ppm

Cc1ccc(O)cc1CC[C@@H]1[C@H](O)CC[C@]2(C)[C@@H]([C@H](C)CCCC(C)C)CC[C@@H]12 [ASTROGORGIADIOL]
LD50 (Artemia): > 100 ppm

Cc1ccc(O)cc1CC[C@@H]1C(=O)CC[C@]2(C)[C@@H]([C@H](C)/C=C/CC(C)C)CC[C@@H]12 [CALICOFEROL A]
LD50 (Artemia): 1.8 ppm

Cc1ccc(O)cc1CC[C@@H]1[C@H](O)CC[C@]2(C)[C@@H]([C@H](C)CCCC(C)C)[C@@H](O)C[C@@H]12 [CALICOFEROL B]
LD50 (Artemia): 2.3 ppm

C=C(CC[C@@H](C)[C@H]1CC[C@H]2[C@H](CCc3cc(O)ccc3C)[C@H](O)CC[C@]12C)C(C)C [CALICOFEROL C]
LD50 (Artemia): > 100 ppm

Cc1ccc(O)cc1CC[C@@H]1C(=O)CC[C@]2(C)[C@@H]([C@H](C)CCCC(C)C)CC[C@@H]12 [CALICOFEROL E]
LD50 (Artemia): > 100 ppm
